Our source for the EC50 values is paper PMC8307317, “Point-Substitution of Phenylalanine Residues of 26RFa Neuropeptide: A Structure-Activity Relationship Study” (Molecules, 2021).

SMILES strings stand for the structures. pEC50: −log10 of the molar value. Starred links: 1 amine or outer side, 2 acyl side, 3 side chain; linkers in the order of their positions; H or OH if unused. Positions of bridges follow the written chain, without caps; N, C: chain ends. Non-standard residues stand in square brackets, D forms with d. Residues, ends and D or L forms follow the SMILES beside them. *: point of attachment. Ahppa(3S,4S) = O=C(C[C@H](O)[C@H](Cc1ccccc1)N[*:1])[*:2]; Oic = O=C(O)[C@@H]1C[C@@H]2CCCC[C@@H]2N1; X9 = NC(=O)C[C@H](O)[C@H](Cc1ccccc1)N*; X3 = O=C(C(c1cccc(F)c1)N1CCNCC1)*; X6 = O=C(C(c1ccc(F)cc1)N1CCNCC1)*; Tic = O=C(O)[C@@H]1Cc2ccccc2CN1; dTic = O=C(O)[C@H]1Cc2ccccc2CN1; X2 = O=C(C(c1ccccc1)N1CCNCC1)*; Nphe = O=C(O)CNCc1ccccc1 A value given as a limit tells only on which side of the number the result lay.

The target in one test is T1, human QRFPR (hQRFPR) (Homo sapiens, UniProt Q96P65).
T1 construct: expressed in transfected cells; host or cells: CHO cells, stably transfected with hQRFPR (G418 selection) and Gα16 (hygromycin B selection)
T1 sequence (Q96P65 1-431): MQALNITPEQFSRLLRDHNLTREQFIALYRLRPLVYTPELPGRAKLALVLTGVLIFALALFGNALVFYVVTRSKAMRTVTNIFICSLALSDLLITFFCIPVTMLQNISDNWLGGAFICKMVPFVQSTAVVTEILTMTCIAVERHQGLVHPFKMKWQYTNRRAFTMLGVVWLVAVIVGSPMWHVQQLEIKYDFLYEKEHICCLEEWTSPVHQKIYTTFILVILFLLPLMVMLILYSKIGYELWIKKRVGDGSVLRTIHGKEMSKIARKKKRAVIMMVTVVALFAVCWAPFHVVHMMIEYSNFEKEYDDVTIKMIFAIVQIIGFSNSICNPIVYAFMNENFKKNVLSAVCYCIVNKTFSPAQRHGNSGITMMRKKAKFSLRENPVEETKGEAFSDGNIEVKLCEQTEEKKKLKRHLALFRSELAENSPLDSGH
In words: Calcium mobilization assay, agonist mode ([Ca2+]i in Gα16-hQRFPR-transfected CHO cells). It counts as cell-based. To be noted: [Ca2+]i mobilization in Gα16-hQRFPR-transfected CHO cells; mean of at least three independent experiments performed in triplicate; read-out: EC50. The method, then: Stably transfected hQRFPR CHO cells were obtained as previously described. The cells were maintained in F-12 nutrient mixture (Ham-F12) medium supplemented with 10% fetal bovine serum, 2 mM glutamine, and penicillin-streptomycin. Expression of Gα16 cells was maintained using selection antibiotic hygromycin B (200 µg/mL) and that of hQRFPR using geneticin G418 (500 µg/mL) (Life Technologies, Villebon-Sur-Yvette, France) in a humidified 5% CO2 atmosphere at 37 °C.
Changes in intracellular Ca^2+ concentrations induced by 26RFa(20–26) analogs in CHO-Gα16-hQRFPR-transfected cells were measured on a benchtop scanning fluorometer Flexstation III (Molecular Devices, Sunnyvale, CA, USA) as previously described. Briefly, 96-well assay black plates with clear bottoms (Corning international, Avon, France) were seeded at a density of 40,000 cells/well 24 h prior to assay. For profiling agonistic experiments, cells were loaded with 2 µM Fluo-4 acetoxymethyl ester (AM) (Invitrogen) for 1 h in the presence of 0.01% pluronic acid, washed thrice, and incubated for 30 min with standard HBSS containing 2.5 mM probenecid and 5 mM HEPES. Compounds to be tested were added at final concentrations ranging from 10^−11 to 10^−5 M in HBSS, and the fluorescence intensity was measured during 3 min. To evaluate the antagonistic potency of the test compounds, cells were incubated with each compound over 15 min after Fluo-4 AM loading. Then, during fluorescence recording, a pulse of 26RFa was administered at a final concentration of 10^−7 M. After subtraction of the mean fluorescence background, the baseline was normalized to 100%. Fluorescence peak values were determined for each concentration of compound.
Calcium experiments were performed in triplicate, and data, expressed as mean ± SEM of at least three distinct experiments, were analyzed with the Prism 8.0 software (Graphpad Software, San Diego, CA, USA). EC50 and the IC50 values were determined from concentration–response curves using a sigmoidal dose–response fit with variable slope from at least three independent determinations. Differences between 26RFa(20–26) and analog activities were analyzed by the Mann–Whitney test. p values < 0.05 were considered significant.
Consider `N=C(N)NCCC[C@H](NC(=O)[C@H](Cc1ccccc1)NC(=O)[C@H](CO)NC(=O)[C@H](Cc1ccccc1)NC(=O)CNC(=O)CN)C(=O)N1Cc2ccccc2C[C@H]1C(N)=O` [Compound 30, [Tic^26]26RFa(20–26)] (H-GGFSFR[Tic]-NH2), for which the pEC50 was 5.11.
For the compound `N=C(N)NCCC[C@H](NC(=O)[C@H](Cc1ccccc1)NC(=O)[C@H](CO)NC(=O)CN(Cc1ccccc1)C(=O)CNC(=O)CN)C(=O)N[C@@H](Cc1ccccc1)C(N)=O` [Compound 31, [NPhe^22]26RFa(20–26)] (H-GG[Nphe]SFRF-NH2), the pEC50 was 6.24.
As to `N=C(N)NCCC[C@H](NC(=O)CN(Cc1ccccc1)C(=O)[C@H](CO)NC(=O)[C@H](Cc1ccccc1)NC(=O)CNC(=O)CN)C(=O)N[C@@H](Cc1ccccc1)C(N)=O` [Compound 32, [NPhe^24]26RFa(20–26)] (H-GGFS[Nphe]RF-NH2), the pEC50 is less than 5.00.
As to `N=C(N)NCCC[C@H](NC(=O)[C@H](Cc1ccccc1)NC(=O)[C@H](CO)NC(=O)[C@H](Cc1ccccc1)NC(=O)CNC(=O)CN)C(=O)N(CC(N)=O)Cc1ccccc1` [Compound 33, [NPhe^26]26RFa(20–26)] (H-GGFSFR[Nphe]-NH2), the pEC50 was less than 5.00.
Same read-out and setting: the figure for `N=C(N)NCCC[C@H](NC(=O)[C@H](Cc1ccccc1)NC(=O)[C@H](CO)NC(=O)C[C@H](O)[C@H](Cc1ccccc1)NC(=O)CNC(=O)CN)C(=O)N[C@@H](Cc1ccccc1)C(N)=O` [Compound 34, [AHPPA^22]26RFa(20–26)] (H-GG[Ahppa(3S,4S)]SFRF-NH2) is 5.55; for `N=C(N)NCCC[C@H](NC(=O)C[C@H](O)[C@H](Cc1ccccc1)NC(=O)[C@H](CO)NC(=O)[C@H](Cc1ccccc1)NC(=O)CNC(=O)CN)C(=O)N[C@@H](Cc1ccccc1)C(N)=O` [Compound 35, [AHPPA^24]26RFa(20–26)] (H-GGFS[Ahppa(3S,4S)]RF-NH2) it is less than 5.00.
Take `N=C(N)NCCC[C@H](NC(=O)[C@H](Cc1ccccc1)NC(=O)[C@H](CO)NC(=O)[C@H](Cc1ccccc1)NC(=O)CNC(=O)CN)C(=O)N[C@@H](Cc1ccccc1)[C@@H](O)CC(N)=O` [Compound 36, [AHPPA^26]26RFa(20–26)] (H-GGFSFR-X9): the pEC50 is less than 5.00.
For `N=C(N)NCCC[C@H](NC(=O)[C@H](Cc1ccccc1)NC(=O)[C@H](CO)NC(=O)[C@@H](Cc1c[nH]c2ccccc12)NC(=O)CNC(=O)CN)C(=O)N[C@@H](Cc1ccccc1)C(N)=O` [Compound 37, [DTrp^22]26RFa(20–26)] (H-GG[dW]SFRF-NH2), the negative-log EC50 (pEC50) was 5.21.
Same read-out and setting: the figure for `N=C(N)NCCC[C@H](NC(=O)[C@@H](Cc1c[nH]c2ccccc12)NC(=O)[C@H](CO)NC(=O)[C@H](Cc1ccccc1)NC(=O)CNC(=O)CN)C(=O)N[C@@H](Cc1ccccc1)C(N)=O` [Compound 38, [DTrp^24]26RFa(20–26)] (H-GGFS[dW]RF-NH2) is less than 5.00.
Turning to `N=C(N)NCCC[C@H](NC(=O)[C@H](Cc1ccccc1)NC(=O)[C@H](CO)NC(=O)[C@H]1Cc2ccccc2CN1C(=O)CNC(=O)CN)C(=O)N[C@@H](Cc1ccccc1)C(N)=O` [Compound 40, [DTic^22]26RFa(20–26)] (H-GG[dTic]SFRF-NH2), the negative-log EC50 (pEC50) was 5.30.
Same read-out and setting: the same measure for `N=C(N)NCCC[C@H](NC(=O)[C@H]1Cc2ccccc2CN1C(=O)[C@H](CO)NC(=O)[C@H](Cc1ccccc1)NC(=O)CNC(=O)CN)C(=O)N[C@@H](Cc1ccccc1)C(N)=O` [Compound 41, [DTic^24]26RFa(20–26)] (H-GGFS[dTic]RF-NH2): 5.21.
Still for that read-out and setting: the figure for `N=C(N)NCCC[C@H](NC(=O)[C@H](Cc1ccccc1)NC(=O)[C@H](CO)NC(=O)[C@H](Cc1ccccc1)NC(=O)CNC(=O)CN)C(=O)N1Cc2ccccc2C[C@@H]1C(N)=O` [Compound 42, [DTic^26]26RFa(20–26)] (H-GGFSFR[dTic]-NH2) is less than 5.00; for `N=C(N)NCCC[C@H](NC(=O)[C@H](Cc1ccccc1)NC(=O)[C@H](CO)NC(=O)[C@@H]1C[C@@H]2CCCC[C@@H]2N1C(=O)CNC(=O)CN)C(=O)N[C@@H](Cc1ccccc1)C(N)=O` [Compound 43, [Oic^22]26RFa(20–26)] (H-GG[Oic]SFRF-NH2) it is less than 5.00.
On the same count and under the same terms, the figure for `N=C(N)NCCC[C@H](NC(=O)[C@@H]1C[C@@H]2CCCC[C@@H]2N1C(=O)[C@H](CO)NC(=O)[C@H](Cc1ccccc1)NC(=O)CNC(=O)CN)C(=O)N[C@@H](Cc1ccccc1)C(N)=O` [Compound 44, [Oic^24]26RFa(20–26)] (H-GGFS[Oic]RF-NH2) is less than 5.00; for `N=C(N)NCCC[C@H](NC(=O)[C@H](Cc1ccccc1)NC(=O)[C@H](CO)NC(=O)[C@H](Cc1ccccc1)NC(=O)CNC(=O)CN)C(=O)N1[C@H](C(N)=O)C[C@@H]2CCCC[C@@H]21` [Compound 45, [Oic^26]26RFa(20–26)] (H-GGFSFR[Oic]-NH2) it is less than 5.00; for `N=C(N)NCCC[C@H](NC(=O)[C@@H]1CSSC[C@H](NC(=O)CNC(=O)CN)C(=O)N[C@@H](CO)C(=O)N1)C(=O)N[C@@H](Cc1ccccc1)C(N)=O` [Compound 46, [Cys^22,24]26RFa(20–26)] (H-GGCSCRF-NH2; disulfide 3-5) it is less than 5.00.
On to `N=C(N)NCCC[C@@H]1NC(=O)[C@H](Cc2ccccc2)NC(=O)[C@H](CO)NC(=O)[C@@H](NC(=O)CNC(=O)CN)CSSC[C@@H](C(N)=O)NC1=O` [Compound 47, [Cys^22,26]26RFa(20–26)] (H-GGCSFRC-NH2; disulfide 3-7), for which the pEC50 was less than 5.00.
As for `N=C(N)NCCC[C@@H]1NC(=O)[C@@H](NC(=O)[C@H](CO)NC(=O)[C@H](Cc2ccccc2)NC(=O)CNC(=O)CN)CSSC[C@@H](C(N)=O)NC1=O` [Compound 48, [Cys^24,26]26RFa(20–26)] (H-GGFSCRC-NH2; disulfide 5-7), the pEC50 was less than 5.00.
Still for that read-out and setting: the figure for `N=C(N)NCCC[C@H](NC(=O)[C@H](Cc1ccccc1)NC(=O)[C@H](CO)NC(=O)C(c1ccccc1)N1CCNCC1)C(=O)N[C@@H](Cc1ccccc1)C(N)=O` (stereo partly shown) [Compound 49, [Cmpi(Phg)^22]26RFa(22–26)] (X2-SFRF-NH2) is less than 5.00.
On to `N=C(N)NCCC[C@H](NC(=O)[C@H](Cc1ccccc1)NC(=O)[C@H](CO)NC(=O)C(c1ccccc1)N1CCNCC1)C(=O)N[C@@H](Cc1ccccc1)C(N)=O` (stereo partly shown) [Compound 50, [Cmpi(Phg)^22]26RFa(22–26)] (X2-SFRF-NH2), for which the pEC50 is less than 5.00.
On to `N=C(N)NCCC[C@H](NC(=O)[C@H](Cc1ccccc1)NC(=O)[C@H](CO)NC(=O)C(c1ccc(F)cc1)N1CCNCC1)C(=O)N[C@@H](Cc1ccccc1)C(N)=O` (stereo partly shown) [Compound 51, [Cmpi(4-FPhg)^22]26RFa(22–26)] (X6-SFRF-NH2), for which the pEC50 was 5.39.
For the compound `N=C(N)NCCC[C@H](NC(=O)[C@H](Cc1ccccc1)NC(=O)[C@H](CO)NC(=O)C(c1ccc(F)cc1)N1CCNCC1)C(=O)N[C@@H](Cc1ccccc1)C(N)=O` (stereo partly shown) [Compound 52, [Cmpi(4-FPhg)^22]26RFa(22–26)] (X6-SFRF-NH2), the pEC50 is 5.78.
Take `N=C(N)NCCC[C@H](NC(=O)[C@H](Cc1ccccc1)NC(=O)[C@H](CO)NC(=O)C(c1cccc(F)c1)N1CCNCC1)C(=O)N[C@@H](Cc1ccccc1)C(N)=O` (stereo partly shown) [Compound 53, [Cmpi(3-FPhg)^22]26RFa(22–26)] (X3-SFRF-NH2): the negative logarithm of the EC50 (pEC50) was 5.45.
For the compound `N=C(N)NCCC[C@H](NC(=O)[C@H](Cc1ccccc1)NC(=O)[C@H](CO)NC(=O)C(c1cccc(F)c1)N1CCNCC1)C(=O)N[C@@H](Cc1ccccc1)C(N)=O` (stereo partly shown) [Compound 54, [Cmpi(3-FPhg)^22]26RFa(22–26)] (X3-SFRF-NH2), the pEC50 was 5.57.

The test is the same for the next values; noted with them: single prototype curve, triplicate; basal [Ca2+]i mobilization; read-out: EC50 calculated from representative dose–response curves (Figure 3).
Take `N=C(N)NCCC[C@H](NC(=O)[C@H](Cc1ccccc1)NC(=O)[C@H](CO)NC(=O)CN(Cc1ccccc1)C(=O)CNC(=O)CN)C(=O)N[C@@H](Cc1ccccc1)C(N)=O` [Compound 31, [NPhe^22]26RFa(20–26)] (H-GG[Nphe]SFRF-NH2): the pEC50 was 6.83.
